Results from patent publication US20260345584A1, “METHODS AND PHARMACEUTICAL COMPOSITIONS FOR TREATING CHEMOTHERAPY-INDUCED PERIPHERAL NEUROPATHY WITH EG5 INHIBITORS” (UNIVERSITY OF MIAMI, priority 2023, published 2026).

Experiments:
mouse DRG neurons = conditions: cultured mouse DRG neurons (Haque et al., 2004); cited from earlier work
[1] = tested on: CIPN caused by bortezomib; conditions: mice (Bobylev et al., 2017); cited from earlier work
Eg5 = Eg5 immunofluorescence in zebrafish caudal fin; format: in vivo; conditions: transient kif11 CRISPR, exon 5
Description: (§1) The stock solution was divided into 20-30 μl aliquots and stored at −20 °C until use (maximal 6 months). Immediately prior to use, paclitaxel was diluted in Ringer's solution and added to dechorionated larval zebrafish. The larval fish were placed individually or in small groups into wells of a 12-well plate containing the treatment solutions. The control group was 0.05% DMSO. Plates were incubated at 28.5 °C and protected from light. Treatment lengths are indicated in the Drawings, Description of the Drawings, and Examples where appropriate. […] EMD534085, Eg5 inhibitor (MedChemExpress, Cat. No. HY-15000) was diluted in 100% DMSO to make a 10 mM stock solution and stored at −20 °C. […] The solutions were exchanged every 48 hr.
Larval fish were transferred into […] glass vials and fixed in 4% paraformaldehyde (PFA)/1× Phosphate-buffered saline (PBS) for 1.5 hr at room temperature, with gentle rocking. Following a 5-minute incubation in 1×PBS+0.1% Tween-20 (PBST), zebrafish were permeabilized in 1×PBS+0.1% Triton X-100 for 10-30 min. Larval fish were transferred into 2 ml reaction tubes and incubated in blocking buffer (1×PBST+5% BSA) for 30 min at room temperature, with rocking. […]

[2] = tested on: caudal fin keratinocytes (dfMTs); assay: dfMT formation (detyrosinated fasciculated looped microtubules) in zebrafish caudal fin keratinocytes; format: in vivo
Description: as §1
(§2) Larval fish were transferred into […] glass vials and fixed in 4% paraformaldehyde (PFA)/1× Phosphate-buffered saline (PBS) for 1.5 hr at room temperature, with gentle rocking. Following a 5-minute incubation in 1×PBS+0.1% Tween-20 (PBST), zebrafish were permeabilized in 1×PBS+0.1% Triton X-100 for 10-30 min. Larval fish were transferred into 2 ml reaction tubes and incubated in blocking buffer (1×PBST+5% BSA) for 30 min at room temperature, with rocking. Larval fish were further incubated overnight in antibody solution (Millipore Sigma, Cat. No. AB3201, 1:300 rabbit anti-GluTub; Sigma, Cat No. T6793, 1:500 mouse anti-acetylated tubulin) in blocking buffer at 4 °C, on a rotator. The next morning, larval fish were transferred into 6-well plates and washed 4×15 min in 1×PBST at room temperature, with rocking. This was followed by incubation in secondary antibody (goat anti-rabbit Cy5, Abcam, Cat. No. ab97077; goat anti-mouse Cy3, Abcam, Cat. No. ab97035) and 1:10,000 Hoechst 33342 (ThermoFisher Scientific, Cat. No. 62249, 20 mM solution) in blocking buffer for 1 hr at room temperature, with rocking. Fish were covered to avoid bleaching. Fish were washed for 4×15 min in 1×PBST at room temperature, with rocking, and immediately mounted for imaging on glass bottom petri dishes (Spectrum Laboratory Products, Cat. No. 750-10403-UE) using 1% agarose (Thermo Fisher Scientific, Cat. No. 16520050). A 1:200 dilution was used for mouse alpha-tubulin antibody (Proteintech, Cat. No. 66031-1) and a 1:1,000 dilution of donkey anti-mouse IgG Alexa488 (ThermoFisher Scientific, Cat. No. A-21202) for secondary detection. For Nox1 immunostaining, a 1:300 dilution of primary antibody (Anti-NOX1 Rabbit Polyclonal Antibody, Avantar, Cat. No. 102164-796) and a 1:1,000 dilution of secondary goat anti-rabbit Cy2 (Abcam, Cat. No. ab6940) antibody was used. Eg5 antibody (Abcam, Cat. No. 61199) was used at a 1:100 and secondary goat anti-rabbit Cy2 (Abcam, Cat. No. ab6940) at 1:1,000 dilution.
CRISPR oligos targeting kif11 were designed using the IDT CRISPR design tool (https://www.idtdna.com/site/order/designtool/index/CRISPR_CUSTOM). The oligo (5′-[…] (SEQ ID NO: 21) was designed to anneal within exon 5 of 23 exons total in zebrafish kif11 with expected mutations ~ position 270 bp in the sequenced region using the following primers for PCR amplification: Fwd 5′-[…]-3′ (SEQ ID NO: 22) and Rev 5′-[…]-3′ (SEQ ID NO: 23). The forward primer was used for sequencing and yielded deletions in transiently injected embryos, as shown in example below in which single zebrafish were sequenced (FIG. 10).
The CRISPR oligo was injected using the Alt-R system (IDT, https://www.idtdna.com/pages/technology/crispr/crispr-genome-editing/Alt-R-systems/cas9), which has provided highly reliable and efficient zebrafish knockout results as used herein. The IDT-recommended protocol (below) was used for CRISPR oligo preparations. Fertilized eggs were injected ~15 minutes post fertilization with CRISPR oligos to ensure maximal efficiency.
Cell counting in the caudal fin was performed in three 100 μm^2 boxes in the dorsal, medial and ventral caudal fin (~100 μm from the edge). […]

[3] = tested on: microtubule detyrosination in keratinocytes; assay: GluTub immunofluorescence of detyrosinated microtubules in zebrafish caudal fin keratinocytes; format: in vivo; conditions: 96 hr
Description: as §1
Larval fish were transferred into […] glass vials and fixed in 4% paraformaldehyde (PFA)/1× Phosphate-buffered saline (PBS) for 1.5 hr at room temperature, with gentle rocking. Following a 5-minute incubation in 1×PBS+0.1% Tween-20 (PBST), zebrafish were permeabilized in 1×PBS+0.1% Triton X-100 for 10-30 min. Larval fish were transferred into 2 ml reaction tubes and incubated in blocking buffer (1×PBST+5% BSA) for 30 min at room temperature, with rocking. Larval fish were further incubated overnight in antibody solution (Millipore Sigma, Cat. No. AB3201, 1:300 rabbit anti-GluTub; Sigma, Cat No. T6793, 1:500 mouse anti-acetylated tubulin) in blocking buffer at 4 °C, on a rotator. The next morning, larval fish were transferred into 6-well plates and washed 4×15 min in 1×PBST at room temperature, with rocking. This was followed by incubation in secondary antibody (goat anti-rabbit Cy5, Abcam, Cat. No. ab97077; goat anti-mouse Cy3, Abcam, Cat. No. ab97035) and 1:10,000 Hoechst 33342 (ThermoFisher Scientific, Cat. No. 62249, 20 mM solution) in blocking buffer for 1 hr at room temperature, with rocking. Fish were covered to avoid bleaching. […]
Fluorescence intensities were measured using the Imaris MATLAB plugin or Fiji. A line was typically placed over the region of interest and the fluorescence automatically quantified. The values were normalized to nuclear (Hoechst33342) fluorescence intensities within the same fish and region to obtain an intensity ratio.
Stabilized microtubules undergo a modification whereby the terminal tyrosine residue was removed, leading to detyrosination (dMT) (Roll-Mecak et al., 2020, Developmental cell 54: 7-20), which was associated with particularly long-term stabilized microtubule populations (Khawaja et al., 1988, The Journal of cell biology 106: 141-149). Exposure of the penultimate glutamate residue can be detected using a GluTub antibody. […]

cutaneous sensory axons = assay: Axon branch number in caudal fin (acetylated tubulin staining); format: in vivo, zebrafish
Description: as §1, §2
Axon branch number quantifications were performed by drawing a 50 μm line across the dorsal, medial, and ventral caudal fin edge region at a distance of 100 μm parallel to the fin edge (which was determined to be the most reliable region to quantify distal branch numbers). Axons traversing this line were counted and averaged per treatment group. Axonal fluorescence measurements were taken using the Imaris Spots function by manually placing spots along the axon and using the fluorescence intensity profile measurements MatLab tool.
Stretching was performed after 96 hr treatment, followed by 2 hr post-stretch fixation, and staining for detection of acetylated tubulin in axons.
To further validate Eg5 as the pharmacological target of EMD534085 in axon regeneration, zebrafish injected with kif11 CRISPR oligo were also analyzed.

| Molecule | neurite outgrowth (mouse DRG neurons) | effect on CIPN caused by bortezomib [1] | Eg5 protein expression (Eg5) | number of keratinocytes per animal with dfMTs ([2]; kif11 CRISPR+22 μM paclitaxel) | percent animals with dfMTs ([2]; kif11 CRISPR+22 μM paclitaxel) [%] | number of keratinocytes per animal with dfMTs ([2]; kif11 CRISPR+vehicle) | percent animals with dfMTs ([2]; kif11 CRISPR+vehicle) [%] | normalized detyrosination fluorescence intensity ([3]; kif11 CRISPR + paclitaxel) | normalized detyrosination fluorescence intensity ([3]; kif11 CRISPR+vehicle) | axon branch number (cutaneous sensory axons; kif11-CRISPR+22 μM paclitaxel) [branches/50 μm] | axon branch number (cutaneous sensory axons; kif11-CRISPR+vehicle) [branches/50 μm] |
| --- | --- | --- | --- | --- | --- | --- | --- | --- | --- | --- | --- |
| CCOC(=O)C1=C(C)NC(=S)NC1c1cccc(O)c1 (centres unmarked) [monastrol] | promotes neurite outgrowth | shown to alleviate CIPN caused by bortezomib | – | – | – | – | – | – | – | – | – |
| kif11 CRISPR: CRISPR oligo (5′-AGGTGACCGATCACCCAATG (SEQ ID NO: 21)) targeting exon 5 of zebrafish kif11, injected as Cas9 ribonucleoprotein (injected as Cas9 ribonucleoprotein, chemistry not given here) | – | – | eliminated Eg5 protein expression | 0.29±0.16 | 25 | 0±0 | 0 | 0.85±0.11 | 1.12±0.2 | 12.83±0.96 | 12.08±0.68 |
